We go through ten compounds from paper PMC6748952, “Identification, Functional Characterization, and Pharmacological Analysis of Two Sulfakinin Receptors in the Medically-Important Insect Rhodnius prolixus” (Scientific Reports, 2019).

“Also recorded” adds a separate entry of the source. Where no end group is shown, it is not given here.

Assay [1] has as its system Rhopr-SKR-1. In words: Functional receptor assay (aequorin bioluminescence), Rhopr-SKR-1 transiently expressed in HEK293/CNG cells. The assay is classed as cell-based, Rhodnius prolixus. As to conditions: for EC50 / luminescence response / activation (in words): HEK293/CNG, first 5-second interval, 3 replicates; for EC50: aequorin luminescence, coelenterazine h 5 μM, read-out: EC50, luminescence response. On the procedure: (§1) An aequorin luminescence assay was utilized in order to measure Ca^2+ signaling in HEK293/CNG cells stably expressing a modified cyclic nucleotide-gated (CNG) channel. The cells were grown in Dulbecco’s Modified Eagle Medium Nutrient Mixture F12-Ham (DMEM/F-12) (Thermo Fisher Scientific, Waltham, MA, USA), with 1% penicillin/streptomycin, 10% fetal bovine serum (FBS), and 100 μg/mL G418 (Geneticin). The HEK293/CNG cells were consistently grown in vented T75 flasks and inclubated at 37 °C in 5% CO2. After reaching approximately 95% confluency, the mammalian cells were transiently co-transfected with the pIRES2-ZsGreen1 expression vector (containing Rhopr-SKR-1 or Rhopr-SKR-2) and the cytoplasmic luminescent reporter aequorin via X-tremeGENE^TM HP DNA Transfection Reagent (Roche Applied Science, Penzberg, Germany). Transfections were performed at a 2:1 ratio for the transfection reagent to the expression vectors. Cells transiently transfected with empty pIRES2-ZsGreen1 expression vectors served as a negative control. The cells were then incubated at 37 °C in 5% CO2 for 72 hours prior to performing the bioluminescence assay.
(§2) The bioluminescence assay was performed as previously described. At 72 hours post-transfection, the HEK293/CNG cells were harvested from the T75 flasks using a PBS with ethylenediaminetetraacetic acid (EDTA) solution then suspended in a bovine serum albumin (BSA) media (DMEM/F-12 with 1% penicillin/streptomycin and 1% BSA). Prior to the functional assay, the cells were incubated in coelenterazine h (Promega, Madison, WI, USA) to a 5 μM final concentration, and then incubated for 4 hours whilst stirring in the dark. The cells were then diluted 8-fold via BSA media. Rhopr-SK-1 and Rhopr-SK-2 (as well as nonsulfated Rhopr-SK-1) were prepared in BSA media then plated in duplicates on 96-well plates, with 50 μL of the cells then automatically injected into each of these wells via a Perkin Elmer Wallac 1420 Victor2 plate reader (Perkin Elmer, San Diego, CA, USA). The reader was used to measure luminescence response in consecutive five-second intervals (15 seconds in total). An extended Rhopr-FMRFamide (GNDNFMRFamide), tachykinin (Rhopr-TK-2), and Rhopr-Kinin-2 were used as controls to test for specificity. ATP was used as a positive control. HEK293/CNG cells transfected with empty pIRES2-ZsGreen1 vectors served as negative controls.

For assay [2], the system named is Rhopr-SKR-2. In words: Functional receptor assay (aequorin bioluminescence), Rhopr-SKR-2 transiently expressed in HEK293/CNG cells. The assay is classed as cell-based, Rhodnius prolixus. As to conditions: for EC50 / luminescence response / activation (in words): HEK293/CNG, first 5-second interval, 3 replicates; for EC50: aequorin luminescence, coelenterazine h 5 μM, read-out: EC50, luminescence response. The protocol:
as §1, §2

In assay [3] the test system is Rhopr-SKR-1. In words: Second messenger pathway assay (PLC inhibitor U73122 or EGTA), Rhopr-SKR-1 in HEK293/CNG cells. The assay is classed as cell-based, Rhodnius prolixus. The following applies: for EC50: 3 replicates, read-out: EC50, luminescence response; for luminescence response: with 10 μM U73122 (10 minutes incubation); for luminescence response of control agents: cells expressing Rhopr-SKR-1, confirms functional CNG channels (Fig. S4). On the procedure:
(§3) To test whether cAMP and/or Ca^2+ are the second messengers for Rhopr-SKR-1 and Rhopr-SKR-2, HEK293/CNG cells were transfected with each receptor, as previously mentioned, then split into cells that were suspended in calcium-free DMEM with the extracellular calcium chelator EGTA (10 μM) or cells treated with the PLC inhibitor U73122 (10 μM) (Sigma Aldrich, Oakville, ON, Canada). […] HEK293/CNG cells with receptors that work via the Ca^2+ pathway would be unable to evoke luminescence in the presence of U73122. The modified CNG channel in HEK293/CNG causes extracellular Ca^2+ to flow into the cell upon an increase in cytoplasmic cAMP levels. Receptors that solely work through the cAMP pathway would be unable to produce a response in calcium-free media with EGTA. Moreover, receptors that work via both Ca^2+ and cAMP would elicit a response in the presence of either U73122 or EGTA in calcium-free media.
(§4) HEK293/CNG cells were used via the same protocol as previously stated. Luminescence was measured in 5-second intervals for a total of 30 seconds. In the first set of experiments, the transfected cells were incubated in 10 μM of U73122 for 10 minutes prior to measuring luminescence in response to the addition of sulfated Rhopr-SK-1 or Rhopr-SK-2. To confirm the viability of the utilized cells, media in 1.5% Triton X-100 served as a positive control. In the second set of experiments, cells were suspended in calcium-free DMEM (Thermo Fisher Scientific, Waltham, MA, USA) with 10 μM of the extracellular calcium chelator EGTA. Here, luminescence was measured in response to sulfated Rhopr-SK-1 or Rhopr-SK-2 in calcium-free DMEM in the presence of EGTA. A batch of cells that was also pre-incubated in calcium-free DMEM with EGTA were then washed, incubated in regular DMEM, and then tested in response to sulfated Rhopr-SK-1 and […]. Forskolin, which is a stimulator of adenylate cyclase, and the cAMP analog dibutyryl cAMP (dbcAMP) were utilized as controls to confirm the expression of functional CNG channels in the HEK293/CNG cells. ATP served as a positive control. GraphPad Prism version 8.00 (https://www.graphpad.com) was used to analyze the bioluminescence results.

The subject of assay [4] is Rhopr-SKR-2. In words: Second messenger pathway assay (PLC inhibitor U73122 or EGTA), Rhopr-SKR-2 in HEK293/CNG cells. The assay is classed as cell-based, Rhodnius prolixus. As to conditions: for EC50: 3 replicates, read-out: EC50, luminescence response; for luminescence response: with 10 μM U73122 (10 minutes incubation). The protocol: as §3, §4
The subject of the next assay is HEK293/CNG cells. In words: Negative control: HEK293/CNG cells transfected with empty pIRES2-ZsGreen1 plasmids. As to conditions: empty pIRES2-ZsGreen1 (not shown). It is filed as cell-based, human. The protocol: as §1, with “Cells transiently transfected with empty pIRES2-ZsGreen1 expression vectors served as a negative control. The cells were then incubated at 37 °C in 5% CO2 for 72 hours prior to performing the bioluminescence assay.” left out
The bioluminescence assay was performed as previously described. […] Rhopr-SK-1 and Rhopr-SK-2 (as well as nonsulfated Rhopr-SK-1) were prepared in BSA media then plated in duplicates on 96-well plates, with 50 μL of the cells then automatically injected into each of these wells via a Perkin Elmer Wallac 1420 Victor2 plate reader (Perkin Elmer, San Diego, CA, USA). The reader was used to measure luminescence response in consecutive five-second intervals (15 seconds in total). […]

In a further assay the test system is R. prolixus. The following applies: peptide injection; cited from earlier work. An excerpt:
Silencing of SKs via RNAi has been linked to stimulation in the intake of food in G. bimaculatus[28] and T. castaneum. Additionally, RNAi-induced silencing of each of the transcripts for the two SKRs in T. castaneum led an increase of food intake by approximately 20% for SKR1[25] and 50% for SKR2[29]. […] In the present study, the transcript coding for Rhopr-SK-1 and Rhopr-SK-2 as well as the ...

In the next assay the test system is PLC pathway. As to conditions: HEK293/CNG cell line; cited from earlier work. On the procedure:
To test whether cAMP and/or Ca^2+ are the second messengers for Rhopr-SKR-1 and Rhopr-SKR-2, HEK293/CNG cells were transfected with each receptor, as previously mentioned, then split into cells that were suspended in calcium-free DMEM with the extracellular calcium chelator EGTA (10 μM) or cells treated with the PLC inhibitor U73122 (10 μM) (Sigma Aldrich, Oakville, ON, Canada). […] HEK293/CNG cells with receptors that work via the Ca^2+ pathway would be unable to evoke luminescence in the pre ...

[5] abbreviates: Rhopr-SKR-1, absence of EGTA, media containing calcium.
The mark [6] stands for this setting: Rhopr-SKR-1, absence of U73122, media containing calcium.
[7] abbreviates: Rhopr-SKR-1, presence of EGTA (10 μM), calcium-free DMEM.
The mark [8] stands for this setting: absence of EGTA, media containing calcium.
Setting [9] is: absence of U73122, media containing calcium.
The mark [10] stands for this setting: presence of EGTA (10 μM), calcium-free DMEM.

What is called EC50 is the concentration that produces a half-maximal response. Take “pQFNEY(SO3H)GHMRFamide [Rhopr-SK-1, native R. prolixus sulfakinin 1, custom synthesized]”: the “potency of Rhopr-SK-1 relative to Rhopr-SK-2” value in the assay on Rhopr-SKR-1 [1] was “one order of magnitude more potent than Rhopr-SK-2”; in the assay on Rhopr-SKR-2 [2], “similar”. In addition, the EC50 in the assay on Rhopr-SKR-1 [1] was 0.532 nM; with Rhopr-SKR-2 [2], 0.144 nM; with Rhopr-SKR-1 [3] (setting [5]), 0.294 nM; in the assay with Rhopr-SKR-1 [3] (setting [6]), 0.317 nM; in the assay on Rhopr-SKR-1 [3] (setting [7]) it was 0.44 nM; in the assay with Rhopr-SKR-2 [4] (setting [8]), 0.214 nM. Also, the EC50 in the assay with Rhopr-SKR-2 [4] (setting [9]) came out at 0.103 nM; in the assay with Rhopr-SKR-2 [4] (setting [10]), 0.344 nM. Also, the “luminescence response / activation (in words)” value in the assay on Rhopr-SKR-1 [1] is “activated by sulfated Rhopr-SK-1 and sulfated Rhopr-SK-2 in a dose-dependent manner; also recorded: full, and potent ligand”; with Rhopr-SKR-2 [2], “activated by sulfated Rhopr-SK-1 and sulfated Rhopr-SK-2 in a dose-dependent manner; also recorded: full, and potent ligand”. Also, the luminescence response entry in the assay on Rhopr-SKR-1 [3] (Rhopr-SKR-1) and with Rhopr-SKR-2 [4] was “unable to elicit a response” each time. The “luminescence in empty-vector cells” value in the assay on HEK293/CNG cells was “no luminescence”. Further, in the assay with R. prolixus, the “size of blood meal” value is “took smaller blood meals”.

In the case of `O=C(O)CN(CCOCCOCCN(CC(=O)O)CC(=O)O)CC(=O)O` [EGTA, ethylene glycol-bis(β-aminoethyl ether)-N,N,N′,N′-tetraacetic acid, reference compound], the “effect of EGTA on luminescence induced by Rhopr-SK-1 and Rhopr-SK-2” value in the assay on Rhopr-SKR-1 [3] (Rhopr-SKR-1, calcium-free media containing EGTA (10 μM)) was “does not abolish the luminescence induced by Rhopr-SK-1 and Rhopr-SK-2”; with Rhopr-SKR-2 [4] (calcium-free media containing EGTA (10 μM)), “does not abolish the luminescence induced by Rhopr-SK-1 and Rhopr-SK-2”.

`CCCC(=O)Nc1ncnc2c1ncn2[C@@H]1O[C@@H]2COP(=O)(O)O[C@H]2[C@H]1OC(=O)CCC` [dibutyryl-cAMP, reference compound]: the “luminescence response of control agents” value in the assay on Rhopr-SKR-1 [3] is recorded as “elicited luminescence responses”.

In the case of “GNDNFMRF-NH2 [extended Rhopr-FMRFamide, control for specificity, reference compound]”, the “luminescence response / activation (in words)” value in the assay on Rhopr-SKR-1 [1] and in the assay with Rhopr-SKR-2 [2] was “little to no response” each time.

With `Nc1ncnc2c1ncn2[C@@H]1O[C@H](COP(=O)(O)OP(=O)(O)OP(=O)(O)O)[C@@H](O)[C@H]1O` [ATP, reference compound], the “bioluminescent response of ATP, positive control” value in the assay with Rhopr-SKR-1 [3] (Rhopr-SKR-1, all conditions (not shown)) is “elicited the expected positive bioluminescent response”; in the assay with Rhopr-SKR-2 [4] (all conditions (not shown)), “elicited the expected positive bioluminescent response”.

With “AKFSSWG-NH2 [Rhopr-Kinin-2, R. prolixus kinin, control for specificity, reference compound]”, the “luminescence response / activation (in words)” value with Rhopr-SKR-1 [1] and with Rhopr-SKR-2 [2] was “little to no response” throughout.

Turning to “GGSDEKFDDY(SO3H)GYMRFamide [Rhopr-SK-2, native R. prolixus sulfakinin 2, custom synthesized]”, the EC50 with Rhopr-SKR-1 [1] was determined as 8.69 nM; with Rhopr-SKR-2 [2], 0.101 nM; in the assay on Rhopr-SKR-1 [3] (setting [5]), 6.86 nM; with Rhopr-SKR-1 [3] (setting [6]), 13.3 nM; in the assay on Rhopr-SKR-1 [3] (setting [7]) it was 30.2 nM; in the assay on Rhopr-SKR-2 [4] (setting [8]), 0.134 nM. The EC50 in the assay on Rhopr-SKR-2 [4] (setting [9]) was 0.121 nM; with Rhopr-SKR-2 [4] (setting [10]), 0.314 nM. In addition, the “luminescence response / activation (in words)” value in the assay with Rhopr-SKR-1 [1] is “activated by sulfated Rhopr-SK-1 and sulfated Rhopr-SK-2 in a dose-dependent manner; also recorded: partial, though potent ligand”; in the assay with Rhopr-SKR-2 [2], “activated by sulfated Rhopr-SK-1 and sulfated Rhopr-SK-2 in a dose-dependent manner; also recorded: partial, though potent ligand”. In the assay with Rhopr-SKR-2 [2] (1 × 10^−6 M, one way ANOVA, Tukey, ***P < 0.001, 3 replicates), the “luminescence of Rhopr-SK-2 vs Rhopr-SK-1” value is recorded as “lower”. Further, the luminescence response entry in the assay with Rhopr-SKR-1 [3] (Rhopr-SKR-1) and in the assay with Rhopr-SKR-2 [4] was “unable to elicit a response” throughout. In addition, in the assay on HEK293/CNG cells, the “luminescence in empty-vector cells” value is reported as “no luminescence”.

Consider “APSTMGFQGVR-NH2 [Rhopr-TK-2, R. prolixus tachykinin, control for specificity, reference compound]”, for which the “luminescence response / activation (in words)” value with Rhopr-SKR-1 [1] and with Rhopr-SKR-2 [2] was “little to no response” throughout.

Turning to `C=C[C@@]1(C)CC(=O)[C@]2(O)[C@@]3(C)[C@@H](O)CCC(C)(C)[C@@H]3[C@H](O)[C@H](OC(C)=O)[C@@]2(C)O1` [forskolin, reference compound], the “luminescence response of control agents” value in the assay with Rhopr-SKR-1 [3] was “elicited luminescence responses”.

For `COc1ccc2c(c1)CC[C@@H]1[C@@H]2CC[C@]2(C)[C@@H](NCCCCCCN3C(=O)C=CC3=O)CC[C@@H]12` [U73122, reference compound], the “effect of U73122 on luminescence response to Rhopr-SK-1 and Rhopr-SK-2” value in the assay on Rhopr-SKR-1 [3] (Rhopr-SKR-1, 10 μM) is “abolished the luminescence response to Rhopr-SK-1 and Rhopr-SK-2”; with Rhopr-SKR-2 [4] (10 μM), “abolished the luminescence response to Rhopr-SK-1 and Rhopr-SK-2”. Besides, the “inhibition of PLC pathway” value with PLC pathway is “successfully inhibit the PLC pathway”.
